Data taken from publication PMC8684776, “Discovery and characterization of potent And‐1 inhibitors for cancer treatment” (Clinical and Translational Medicine, 2021).
Where a name gives a salt, the structure may show the parent alone. Read-outs that look alike come from different tables or passages of the source.

Assays:
[1] = biological target: T1, And‐1 (Homo sapiens, UniProt O75717); assay: And‐1 luciferase reporter assay (qHTS of LOPAC); format: cell-based
T1 construct: expressed in transfected cells
T1 sequence (O75717 1-1129): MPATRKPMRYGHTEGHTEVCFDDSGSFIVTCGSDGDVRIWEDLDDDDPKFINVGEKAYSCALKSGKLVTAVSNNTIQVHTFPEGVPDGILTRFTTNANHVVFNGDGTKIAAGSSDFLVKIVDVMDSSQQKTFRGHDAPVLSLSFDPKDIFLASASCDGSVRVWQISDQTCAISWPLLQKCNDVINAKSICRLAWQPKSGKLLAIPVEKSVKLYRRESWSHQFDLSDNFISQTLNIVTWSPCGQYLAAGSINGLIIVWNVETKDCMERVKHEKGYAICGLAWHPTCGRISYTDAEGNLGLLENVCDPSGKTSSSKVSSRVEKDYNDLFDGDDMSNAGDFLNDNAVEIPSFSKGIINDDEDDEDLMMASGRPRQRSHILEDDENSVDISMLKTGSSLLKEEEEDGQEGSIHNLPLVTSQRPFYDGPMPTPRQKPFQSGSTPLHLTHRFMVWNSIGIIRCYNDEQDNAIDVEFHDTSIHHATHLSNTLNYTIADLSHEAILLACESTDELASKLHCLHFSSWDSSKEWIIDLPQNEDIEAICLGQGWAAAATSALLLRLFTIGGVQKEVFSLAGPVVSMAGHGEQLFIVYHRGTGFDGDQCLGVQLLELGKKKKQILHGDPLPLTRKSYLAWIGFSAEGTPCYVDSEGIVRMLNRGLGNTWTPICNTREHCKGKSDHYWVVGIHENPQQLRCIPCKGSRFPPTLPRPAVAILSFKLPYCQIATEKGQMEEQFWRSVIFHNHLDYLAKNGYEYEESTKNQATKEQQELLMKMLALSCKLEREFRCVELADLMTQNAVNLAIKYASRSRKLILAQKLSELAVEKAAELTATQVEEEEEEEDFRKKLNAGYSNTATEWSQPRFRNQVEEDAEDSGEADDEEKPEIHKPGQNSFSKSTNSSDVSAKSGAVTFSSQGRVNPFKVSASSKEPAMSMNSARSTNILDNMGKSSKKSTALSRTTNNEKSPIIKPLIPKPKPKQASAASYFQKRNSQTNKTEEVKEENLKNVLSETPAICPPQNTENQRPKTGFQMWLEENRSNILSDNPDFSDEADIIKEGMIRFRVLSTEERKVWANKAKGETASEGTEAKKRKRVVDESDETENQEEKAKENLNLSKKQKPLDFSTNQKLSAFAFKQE
Method: And‐1‐Luc reporter HEK293 cells were dispensed at 2000 cells/5 μl/well in tissue culture treated white wall/solid bottom 1536‐well plates (Greiner Bio‐One North America, Monroe, NC, USA) using a Thermo Scientific Multidrop Combi (ThermoFisher Scientific, Inc.). After the cells were incubated in assay plates at 37°C for 5 h, 23 nl of compounds (LOPAC) was transferred into the assay plates using a Wako Pintool station (Wako Automation, San Diego, CA, USA). The assay plates were incubated at 37°C for 48 h, followed by the addition of 5 μl ONE‐Glo luciferase reagent (Promega, Madison, WI, USA) using a Flying Reagent Dispenser (Aurora Discovery, Carlsbad, CA, USA). After 30 min of incubation at room temperature, the luminescence intensity of the assay plates was quantified using a ViewLux plate reader (PerkinElmer, Shelton, CT, USA).
(§1) To evaluate whether And‐1 is required for tumor survival, we examined the dependence of a broad range of tumor cells on And‐1 by using dependency score analysis from DepMap (https://depmap.org/portal/). […] To identify And‐1 specific pharmacologic inhibitor, we established an HTS assay to identify small molecules that can inhibit And‐1 by inducing its degradation. To this end, we first established two stable cell lines, HEK293T‐And‐1‐Luc expressing And‐1 protein fused to a luciferase reporter gene, and HEK293T‐Luc expressing luciferase only (Figure 1B). HEK293T‐And‐1‐Luc cells allow us to monitor And‐1 protein levels by measuring luciferase activity in a high‐throughput manner. Using these cell lines, we conducted a screening for And‐1 inhibitors against a LOPAC small molecule library by using a quantitative HTS (qHTS) as we described previously.[46]

[2] = parameters: method as in PMID 15779070; details: due to rapid metabolism; cited from earlier work
[3] = biological target: T1, And‐1; assay: Immunoblot of And‐1 expression in IGROV1 cells; format: cell-based; details: read-out: IC50, And‐1 expression
Excerpt: (§2) The assay was as previously described.[45]
as §1
(A) Dependency score of WDHD1/And‐1 analyzed by DepMap. […] (B) Establishment of HEK293T‐And‐1‐Luc and HEK293T‐Luc cells for the high‐throughput screen (HTS). (C) Schematic diagram of quantitative HTS (qHTS) for And‐1 inhibitors. (D) Immunoblot analyses to detect And‐1 expression in IGROV1 cells treated with resveratrol at indicated concentrations. (E) Chemical structures of resveratrol and its three analogs as indicated. (F) Left, immunoblot analyses to detect And‐1 expression in IGROV1 cells treated with And‐1 inhibitors at the indicated concentration. Right, quantification of And‐1 expression shown in the left panel.

[4] = test system: IGROV1 cells; assay: Immunofluorescence of CtIP recruitment to micro-irradiation induced DSB sites; format: cell-based, human; details: 1 µM
Method: (§3) Supplementary Figure S1. Identification of novel And-1 inhibitors. […]
siAnd-1. S: S phase. (D) Immunofluorescence assay to detect CtIP and γH2AX foci formation after CH3 […]
IGROV1 cells treated with DMSO, 1 […]
to immunostain γH2AX and CtIP. For each experiment, 50 cells were counted and the percentage of cells with co-localization of γH2AX and CtIP foci was determined. Data represent means ± SEM from three independent experiments. (E) HR reporter assay to detect HR repair efficiency in cells treated with CH3. […]

[5] = test system: IGROV1 CR cells; assay: SRB cell viability assay, combination with cisplatin; format: cell-based, human; details: by combination index (CI < 1 synergism)
Method: as §2
Synergy of each combination was indicated as combination index (CI) values. […] (C) Tumors of IGROV1 CR xenograft treated with control (vehicle), cisplatin (8 mg/kg/day intraperitoneally), CH3 (20 mg/kg/3days intraperitoneally), or a combination of CH3 and cisplatin for 3 weeks. Ruler scale is in centimeters. (D) Growth curves of IGROV1 CR xenografts. […] (E) IHC staining against And‐1 antibodies of tumor samples from four treated groups of mice. Scale bar: 50 μm. […] Ruler scale is in centimeters. (G) Growth curves of IGROV1 CR xenografts. […] (H) IHC staining against And‐1 antibodies of tumor samples from four treated groups of mice. Scale bar: 50 μm.

[6] = test system: IGROV1 cells; assay: Flow cytometry cell cycle analysis (propidium iodide); format: cell-based, human; details: 1 µM, FACS
Excerpt: And‐1 is involved in DNA replication in the S‐phase and is required for the S‐phase progression.[15] We assumed that And‐1 inhibitors should be able to inhibit DNA replication by targeting And‐1.
as §3
Molecular weight of each compound was indicated. (C) Flow cytometry

[7] = test system: IGROV1 CR xenografts; assay: Cisplatin resistant IGROV1 CR xenograft in nude mice; format: in vivo, mouse
[8] = reduction of luciferase activity, qHTS, column 1, read-out: IC50 (uM) 1
[9] = reduction of luciferase activity, qHTS, column 2
[10] = reduction of luciferase activity, qHTS, average of 1 and 2, read-out: IC50 (uM) average
[11] = reduction of luciferase activity, qHTS, column 2, read-out: IC50 (uM) 2

In the case of `CC[C@@]1(O)C(=O)OCc2c1cc1n(c2=O)Cc2cc3ccccc3nc2-1` [(S)-(+)-Camptothecin], the IC50 [1, 8] was 0.73 µM and the “IC50 (uM) 2” value [1, 9] was “inactive”.

In the case of `Oc1ccc(/C=C/c2cc(O)cc(O)c2)cc1` [Resveratrol, 3,5,4′‐trihydroxy‐trans‐stilbene], the oral bioavailability [2] is given as “low oral bioavailability”, the DC50 ([1]; HEK293T‐And‐1‐Luc cells, qHTS, read-out: IC50, reduction of And‐1 levels (screening)) is given as 18.9 µM and the DC50 [1, 10] is given as 18.9 µM. The DC50 [1, 8] was 14.9 µM, the DC50 [1, 11] was 22.9 µM and the DC50 [3] was 16.7 µM.

For `CC[C@@]1(O)C(=O)OCc2c1cc1n(c2=O)Cc2cc3c(CN(C)C)c(O)ccc3nc2-1` [Topotecan hydrochloride hydrate], the IC50 [1, 8] was 0.61 µM and the “IC50 (uM) 2” value [1, 9] was “inactive”.

With `Nc1ccn([C@@H]2O[C@H](CO)[C@@H](O)C2(F)F)c(=O)n1` [Gemcitabine hydrochloride] the DC50 [1, 8] was 0.02 µM and the “IC50 (uM) 2” value [1, 9] was “inactive”.

With `Cc1c(-c2ccc(O)cc2)n(Cc2ccc(OCCN3CCCCCC3)cc2)c2ccc(O)cc12` [BZA, bazedoxifene acetate] the “recruitment of CtIP to DSB sites induced by micro‐irradiation” value [4] was “significantly decreased”, the “synergy with cisplatin to inhibit cell proliferation” value [5] was “significant synergy with cisplatin” and the “percentage of cells in the S‐phase” value [6] was “reduced the percentage of cells in the S‐phase”. The “expression of And‐1 in tumours (IHC)” value [7] was “suppressed expression of And‐1 in tumours”, the “resistant tumour growth, combination with cisplatin vs cisplatin alone” value ([7]; cisplatin 8 mg/kg + CH3 20 mg/kg or BZA 2 mg/kg, intraperitoneal, 3 weeks) was “significantly reduced resistant tumour growth” and the DC50 [3] was 0.32 µM.

In the case of `CC[n+]1c(/C=C/C=C2/N(C)c3ccccc3C2(C)C)sc2ccccc21` [AC-93253 iodide], the IC50 [1, 10] was 0.76 µM, the IC50 [1, 8] was 1.09 µM and the IC50 [1, 11] was 0.44 µM.

In the case of `C=CCc1cccc(/C=N/NC(=O)CN2CCN(Cc3ccccc3)CC2)c1O` [PAC-1], the IC50 [1, 10] was 21.3 µM, the IC50 [1, 8] was 18.8 µM and the IC50 [1, 11] was 23.8 µM.

With `O=C1C(SCCO)=C(SCCO)C(=O)c2ccccc21` [NSC 95397] the IC50 [1, 10] was 9.42 µM, the IC50 [1, 8] was 11.2 µM and the IC50 [1, 11] was 7.68 µM.

For `CNc1ccc2oc(C[C@H]3O[C@@]4(CC[C@H]3C)O[C@H]([C@H](C)C(=O)c3ccc[nH]3)[C@H](C)C[C@H]4C)nc2c1C(=O)O` [Calcimycin], the DC50 [1, 10] was 8.32 µM, the DC50 [1, 8] was 6.1 µM and the DC50 [1, 11] was 10.5 µM.

In the case of `c1ccc2c(c1)[I+]c1ccccc1-2` [Diphenyleneiodonium chloride], the DC50 ([1]; read-out: IC50 (uM) 1) was 0.84 µM, the DC50 ([1]; read-out: IC50 (uM) 2) was 0.03 µM and the DC50 ([1]; read-out: IC50 (uM) average) was 0.43 µM.

For `COc1cc2c(cc1O)CC[C@@H]1[C@@H]2CC[C@]2(C)[C@@H](O)CC[C@@H]12` [2-methoxyestradiol], the DC50 [1, 8] was 1.67 µM and the “IC50 (uM) 2” value [1, 9] was “inactive”.

`COCCOC(=O)C1=C(C)NC(C)=C(C(=O)OC/C=C/c2ccccc2)C1c1cccc([N+](=O)[O-])c1` (centres unmarked) [Cilnidipine] gave a DC50 [1, 10] of 21.1 µM, a DC50 [1, 8] of 22.9 µM and a DC50 [1, 11] of 19.3 µM.

Compound `C/C=C(/C)C(=O)O[C@H]1C(C)=C2[C@H]([C@@H]1OC(=O)CCCCCCC)[C@@](C)(OC(C)=O)C[C@H](OC(=O)CCC)[C@@]1(O)[C@H]2OC(=O)[C@@]1(C)O` [Thapsigargin] has a DC50 [1, 10] of 6.95 µM, a DC50 [1, 8] of 13.3 µM and a DC50 [1, 11] of 0.63 µM.

Compound `CCN(CC)CCOc1ccc(Nc2ncc3cc(-c4c(Cl)cccc4Cl)c(=O)n(C)c3n2)cc1` [PD-166285 hydrate] has an IC50 [1, 10] of 3.03 µM, an IC50 [1, 8] of 3.33 µM and an IC50 [1, 11] of 2.73 µM.
